According to publication PMC11381307 (Frontiers in Pharmacology, 2024):

Legend:
[1] = target: T1, OATP1B1 (Homo sapiens, UniProt Q9Y6L6); assay: Inhibitory effect of seven drugs on OATP1B1-mediated E217βG uptake; type: cell-based; settings: 50 μM or 50 μg/mL; N = 2
T1 construct: host or cells: HEK293
T1 sequence (Q9Y6L6 1-691): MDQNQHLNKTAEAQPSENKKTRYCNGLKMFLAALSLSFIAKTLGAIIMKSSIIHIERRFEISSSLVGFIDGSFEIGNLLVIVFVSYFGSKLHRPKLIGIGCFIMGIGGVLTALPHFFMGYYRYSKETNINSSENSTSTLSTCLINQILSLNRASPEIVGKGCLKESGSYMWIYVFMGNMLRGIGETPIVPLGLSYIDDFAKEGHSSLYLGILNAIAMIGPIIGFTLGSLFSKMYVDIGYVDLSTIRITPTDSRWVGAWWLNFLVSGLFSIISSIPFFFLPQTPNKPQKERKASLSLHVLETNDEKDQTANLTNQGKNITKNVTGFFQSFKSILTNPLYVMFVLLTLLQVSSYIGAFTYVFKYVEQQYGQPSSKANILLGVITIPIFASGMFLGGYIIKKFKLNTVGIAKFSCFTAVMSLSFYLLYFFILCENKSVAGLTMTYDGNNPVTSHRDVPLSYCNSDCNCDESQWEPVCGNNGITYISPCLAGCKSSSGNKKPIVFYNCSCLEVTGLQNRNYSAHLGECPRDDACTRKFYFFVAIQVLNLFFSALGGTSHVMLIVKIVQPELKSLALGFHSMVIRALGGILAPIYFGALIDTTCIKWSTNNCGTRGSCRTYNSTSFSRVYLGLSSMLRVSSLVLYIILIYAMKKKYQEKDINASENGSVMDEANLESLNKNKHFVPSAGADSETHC
Protocol: (§1) Note: the peak area of probe substrate transported by MRP2, OAT3, OATP1B1 or OATP1B3 was determined by LC-MS method. Then, the relative uptake rate of probe substrate in the presence of seven drugs was calculated by using equation 7 or 11. When the relative uptake rate was decreased by more than 50%, indicating the potential inhibitory of drug on the transporter.

[2] = target: T2, OATP1B3 (Homo sapiens, UniProt Q9NPD5); assay: Inhibitory effect of seven drugs on OATP1B3-mediated E217βG uptake; type: cell-based; settings: 50 μM or 50 μg/mL; N = 2
T2 construct: host or cells: HEK293
T2 sequence (Q9NPD5 1-702): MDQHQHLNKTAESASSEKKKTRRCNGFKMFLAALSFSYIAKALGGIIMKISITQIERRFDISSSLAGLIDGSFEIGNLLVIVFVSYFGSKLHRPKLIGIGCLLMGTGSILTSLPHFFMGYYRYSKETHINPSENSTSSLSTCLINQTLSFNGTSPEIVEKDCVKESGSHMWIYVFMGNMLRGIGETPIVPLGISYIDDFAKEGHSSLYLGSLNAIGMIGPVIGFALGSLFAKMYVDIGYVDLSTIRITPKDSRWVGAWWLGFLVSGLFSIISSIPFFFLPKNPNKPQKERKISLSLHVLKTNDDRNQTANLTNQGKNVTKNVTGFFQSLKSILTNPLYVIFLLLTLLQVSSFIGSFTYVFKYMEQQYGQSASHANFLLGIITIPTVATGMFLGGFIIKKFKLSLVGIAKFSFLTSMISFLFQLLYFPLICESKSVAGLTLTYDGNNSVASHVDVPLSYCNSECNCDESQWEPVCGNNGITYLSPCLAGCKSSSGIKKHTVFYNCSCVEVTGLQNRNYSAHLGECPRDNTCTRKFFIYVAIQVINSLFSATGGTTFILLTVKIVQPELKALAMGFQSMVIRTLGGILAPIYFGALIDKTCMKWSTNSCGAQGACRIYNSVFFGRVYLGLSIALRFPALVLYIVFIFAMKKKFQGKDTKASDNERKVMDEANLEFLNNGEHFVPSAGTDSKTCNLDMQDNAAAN
Protocol: as §1

[3] = target: MRP2 (Homo sapiens, UniProt Q92887); assay: Inhibitory effect of seven drugs on MRP2-mediated E217βG uptake (vesicles); type: biochemical; design: purchased GenoMembrane (Tokyo, Japan) Product No. 0001; settings: 50 μM or 50 μg/mL; N = 2
Protocol: Briefly, 10 μL of vesicle membranes and 5 μL of Reagent G were mixed and pre-incubated with 10 μL of the compounds or Buffer A2 (used as no compound-treatment control [NC]) at 37°C for 5 min. […] The two mixtures were mixed before the incubation and then incubated for an additional 5 min. […]
Regarding the inhibition assay, the methods used to calculate the transported activity and UR were similar to those used for the substrate assay. However, please refer to the SLC inhibition assay for the equations for calculating the UR percentages relative to the NC and IC50 values of compounds on MRP2 activity and MRP2-mediated MPAG transport.
as §1

[4] = system: UGT; assay: Human hepatocyte UGT induction study, conversion of MPA to MPAG; type: cell-based; settings: for formation of MPAG, % of NC (Mean): 96 h treatment
Protocol: Cryopreserved human hepatocytes were recovered in a pre-warmed incubation medium, diluted to a viable cell density (∼0.7 × 10^6 cells/mL) using a plating medium, followed by the addition of 100 μL hepatocytes into each well of a collagen I-coated 96-well plate. The cell monolayer was formed after an overnight incubation period at 37°C under 5%CO2. The plating medium was then replaced with an incubation medium for further culture. On the second day, an incubation medium containing different concentrations of either compound, the inducer omeprazole (final concentration of 50 μM), or vehicle (0.1% [v/v] dimethyl sulfoxide [DMSO]). […] At the end of the incubation period, the medium was replaced with a substrate for UGT and MPA. Following a further incubation of 15 or 30 min at 37°C under 5% CO2, 100 μL of the reaction medium was transferred to 400 μL of ice-cold methanol containing internal standard (IS) to terminate the reaction. Finally, the supernatant was collected after centrifugation at 4,000 rpm for 10 min and analyzed for glucuronide formation using liquid chromatography-mass spectrometry (LC-MS).
The formation of glucuronide metabolites, as determined with LC-MS, was used to calculate the formation rate linked to enzyme activity according to Equation 1. Formation rate pmol/10^6 cells/min=amount of glucuronide metabolites formation pmol/number of cells 10^6 cells×incubation time min (1)
The percentage of enzyme activity relative to the NC (%) was determined using Equation 2. Relative enzyme activity % of NC=formation rate in the compound−treated group/that in NC×100 (2)

[5] = target: T3, OAT3 (Homo sapiens, UniProt Q8TCC7); assay: Transporter substrate study using HEK293-OAT3 cells
T3 sequence (Q8TCC7 1-542): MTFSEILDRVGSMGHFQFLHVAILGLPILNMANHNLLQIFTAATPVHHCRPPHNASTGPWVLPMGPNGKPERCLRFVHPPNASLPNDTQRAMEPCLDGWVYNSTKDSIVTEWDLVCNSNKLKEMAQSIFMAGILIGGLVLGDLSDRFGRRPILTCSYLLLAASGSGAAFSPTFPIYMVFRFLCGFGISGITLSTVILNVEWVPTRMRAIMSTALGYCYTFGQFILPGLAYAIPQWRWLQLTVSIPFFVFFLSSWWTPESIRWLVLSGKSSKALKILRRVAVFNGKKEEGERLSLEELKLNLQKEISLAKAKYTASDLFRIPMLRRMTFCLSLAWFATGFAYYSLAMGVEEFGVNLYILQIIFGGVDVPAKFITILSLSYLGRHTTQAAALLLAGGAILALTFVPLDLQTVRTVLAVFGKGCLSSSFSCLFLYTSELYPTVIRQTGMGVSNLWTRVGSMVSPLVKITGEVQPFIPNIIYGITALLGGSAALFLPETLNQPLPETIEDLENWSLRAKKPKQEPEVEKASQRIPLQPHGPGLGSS

[6] = target: T3, OAT3; assay: Inhibitory effect of seven drugs on OAT3-mediated ES uptake; type: cell-based; design: host or cells: HEK293; settings: 50 μM or 50 μg/mL; N = 2
Protocol: as §1

[7] = cited from earlier work

Sequence of MRP2 (Q92887 whole entry): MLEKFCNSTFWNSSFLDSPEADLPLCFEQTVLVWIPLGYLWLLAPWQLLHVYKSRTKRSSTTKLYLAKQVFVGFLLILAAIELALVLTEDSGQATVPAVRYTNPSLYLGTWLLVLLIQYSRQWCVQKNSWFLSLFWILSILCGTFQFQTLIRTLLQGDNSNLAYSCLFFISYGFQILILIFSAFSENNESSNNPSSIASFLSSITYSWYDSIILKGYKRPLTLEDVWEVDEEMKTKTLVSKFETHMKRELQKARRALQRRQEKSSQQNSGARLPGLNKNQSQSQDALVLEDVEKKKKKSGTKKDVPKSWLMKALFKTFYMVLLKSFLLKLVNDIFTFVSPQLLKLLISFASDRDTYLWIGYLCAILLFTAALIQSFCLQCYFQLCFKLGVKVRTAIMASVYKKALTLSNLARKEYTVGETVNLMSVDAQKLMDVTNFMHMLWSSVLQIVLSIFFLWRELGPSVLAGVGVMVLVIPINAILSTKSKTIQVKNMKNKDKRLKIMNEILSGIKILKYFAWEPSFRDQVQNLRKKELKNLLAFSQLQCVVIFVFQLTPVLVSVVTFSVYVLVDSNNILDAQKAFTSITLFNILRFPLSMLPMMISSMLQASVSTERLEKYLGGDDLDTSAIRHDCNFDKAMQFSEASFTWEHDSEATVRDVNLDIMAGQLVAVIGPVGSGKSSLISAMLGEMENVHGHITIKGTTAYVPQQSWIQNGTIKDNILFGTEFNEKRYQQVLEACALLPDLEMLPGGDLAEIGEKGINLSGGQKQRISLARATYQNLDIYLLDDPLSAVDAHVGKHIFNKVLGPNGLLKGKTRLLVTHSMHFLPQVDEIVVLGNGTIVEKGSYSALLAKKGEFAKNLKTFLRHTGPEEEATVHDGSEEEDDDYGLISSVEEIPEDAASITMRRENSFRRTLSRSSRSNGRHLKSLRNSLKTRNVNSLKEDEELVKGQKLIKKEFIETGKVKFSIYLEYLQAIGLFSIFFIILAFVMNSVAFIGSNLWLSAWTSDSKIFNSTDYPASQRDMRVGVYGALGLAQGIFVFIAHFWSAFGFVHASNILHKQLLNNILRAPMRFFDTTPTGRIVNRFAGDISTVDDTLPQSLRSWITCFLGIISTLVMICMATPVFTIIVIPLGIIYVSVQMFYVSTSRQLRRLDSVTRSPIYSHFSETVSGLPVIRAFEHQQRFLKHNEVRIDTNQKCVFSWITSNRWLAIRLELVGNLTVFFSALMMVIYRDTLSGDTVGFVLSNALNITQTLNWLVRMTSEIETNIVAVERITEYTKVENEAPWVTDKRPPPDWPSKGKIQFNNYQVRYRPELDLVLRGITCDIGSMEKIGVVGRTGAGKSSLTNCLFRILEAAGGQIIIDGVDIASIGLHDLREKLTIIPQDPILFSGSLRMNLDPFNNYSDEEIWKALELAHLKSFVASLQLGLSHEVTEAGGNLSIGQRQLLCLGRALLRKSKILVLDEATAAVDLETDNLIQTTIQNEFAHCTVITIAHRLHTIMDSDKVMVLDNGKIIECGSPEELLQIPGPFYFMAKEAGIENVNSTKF

Structure (SMILES)	Relative net uptake rate (% of NC), Mean, OATP1B1-mediated E217βG uptake [1]	Relative net uptake rate (% of NC), Mean, OATP1B3-mediated E217βG uptake [2]	Relative net uptake rate (% of NC), Mean, MRP2-mediated E217βG uptake [3]	Relative net uptake rate (% of NC), Mean, OAT3-mediated ES uptake [6]	also measured
CCN1CCN(C(=O)N[C@@H](C(=O)N[C@@H]2C(=O)N3C(C(=O)O)=C(CSc4nnnn4C)CS[C@H]23)c2ccc(O)cc2)C(=O)C1=O [Cefoperzone, cefoperazone]	168 % of NC	67.5 % of NC	104 % of NC		
C[C@]12C=CC(=O)C=C1CC[C@@H]1[C@@H]2[C@@H](O)C[C@@]2(C)[C@H]1CC[C@]2(O)C(=O)CO [prednisolone]					formation of MPAG, % of NC (Mean) ([4]; 0.5 μM): 101 % of NC; formation of MPAG, % of NC (Mean) ([4]; 1 μM): 114 % of NC; formation of MPAG, % of NC (Mean) ([4]; 5 μM): 106 % of NC; formation of MPAG, % of NC (Mean) ([4]; 10 μM): 101 % of NC; formation of MPAG, % of NC (Mean) ([4]; 50 μM): 126 % of NC; formation of MPAG, % of NC (Mean) ([4]; 100 μM): 129 % of NC; change in MPAG formation from MPA (in words) ([4]; 96 h incubation of human hepatocytes): slight increase
C[C@]12CC[C@@H]3c4ccc(OS(=O)(=O)O)cc4CC[C@H]3[C@@H]1CCC2=O [ES, estrone-3-sulfate]					uptake ratio (UR) of probe substrate mediated by OAT3 ([5]; after probenecid treatment): 3.26; uptake ratio (UR) of probe substrate mediated by OAT3 ([5]; without inhibitor): 7.37
CCCN(CCC)S(=O)(=O)c1ccc(C(=O)O)cc1 [probenecid]					reduction of OAT3-mediated MPAG uptake ([5]; 10 μM MPAG): 90.8%; reduction of OAT3-mediated ES uptake ([5]; probe substrate ES): 69.4%
COc1ccnc(C[S+]([O-])c2nc3ccc(OC(F)F)cc3[nH]2)c1OC (centres unmarked) [Pantoprazole, pantoprazole]	115 % of NC	67.7 % of NC	134 % of NC	87.2 % of NC	
O=C(c1cc(Cc2n[nH]c(=O)c3ccccc23)ccc1F)N1CCN(C(=O)C2CC2)CC1 [Olaparib, olaparib]	99.3 % of NC	72.4 % of NC	136 % of NC	70.2 % of NC	
CCCCC[C@H](O)/C=C/[C@H]1[C@H](O)CC(=O)[C@@H]1CCCCCCC(=O)O [Alprostadil, alprostadil]	33.6 % of NC	59.6 % of NC	137 % of NC	52.6 % of NC	
COc1c(C)c2c(c(O)c1C/C=C(\C)CCC(=O)OCCN1CCOCC1)C(=O)OC2 [MMF, mycophenolate mofetil]					fraction of the absorbed drug eliminated in the urine ([7]; ref van Schaik et al., 2009): approximately 87%
COc1c(C)c2c(c(O)c1C/C=C(\C)CCC(=O)O)C(=O)OC2 [MPA, mycophenolic acid]					exposure lower in the early phase after transplantation than in the stable period ([7]; similar dose of MMF, ref Shaw et al., 2003): 30%–50%
C[C@@H](O)[C@H]1C(=O)N2C(C(=O)O)=C(S[C@@H]3CN[C@H](C(=O)N(C)C)C3)[C@H](C)[C@H]12 [Meropenem, meropenem]	95.9 % of NC	69.9 % of NC	137 % of NC	26.6 % of NC	
